In patent US12459967B2, “Modulators of 5′-nucleotidase, ecto and the use thereof” (Arcus Biosciences, Inc., priority 2016, dated 2025):

Target: T1, human CD73 (Homo sapiens, UniProt P21589)
T1 construct: host or cells: CHO-K1 (suspension pool CHO-CD73)
T1 sequence (P21589 27-549): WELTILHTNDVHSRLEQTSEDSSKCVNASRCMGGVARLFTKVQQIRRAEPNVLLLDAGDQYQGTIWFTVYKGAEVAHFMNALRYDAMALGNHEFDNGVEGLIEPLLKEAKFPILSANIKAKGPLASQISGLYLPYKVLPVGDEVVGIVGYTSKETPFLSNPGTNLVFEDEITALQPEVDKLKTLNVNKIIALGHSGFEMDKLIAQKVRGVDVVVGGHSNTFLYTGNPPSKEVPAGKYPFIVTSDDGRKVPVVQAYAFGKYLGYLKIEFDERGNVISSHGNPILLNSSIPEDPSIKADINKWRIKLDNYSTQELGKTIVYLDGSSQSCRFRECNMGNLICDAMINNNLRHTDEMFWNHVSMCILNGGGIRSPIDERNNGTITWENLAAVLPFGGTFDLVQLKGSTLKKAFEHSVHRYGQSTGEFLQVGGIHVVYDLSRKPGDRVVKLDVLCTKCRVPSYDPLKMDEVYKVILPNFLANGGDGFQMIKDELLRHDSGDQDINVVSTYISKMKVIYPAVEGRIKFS
Experiment: Inhibition of ecto-5′-nucleotidase (CD73) activity in CHO-CD73 cells, phosphate colorimetric readout
Assay type: cell-based
Settings: CHO-K1 cells stably transfected with human CD73, 2500 cells per well, 25 μM AMP substrate, 50 minutes incubation at 37° C.; read-out: Potency: CD73 IC50
Experimental: Inhibition of Ecto-5′-nucleotidase Activity. Compounds were evaluated to determine their ecto-5′-nucleotidase (CD73) inhibitory activity. Briefly, CHO-K1 cells stably transfected with human CD73 were generated by LakePharma (Belmont, CA) using molecular cloning of human CD73 (http://www.uniprot.org/uniprot/P21589) and mammalian transient expression vector (P21589.1). After antibiotic selection in CD OptiCHO cell media (Invitrogen, Catalog #12681-011) containing 5 μg/mL Puromycin and 200 μg/mL Hygromycin B, a suspension pool of CHO-CD73 cells was collected and frozen in 7.5% DMSO in cell media without antibiotics.
On the day of the experiment, one vial of CHO-CD73 cells was thawed and suspended in assay media which consisted of 20 mM HEPES, pH 7.4, 137 mM NaCl, 5.4 mM KCl, 1.3 mM CaCl2), 4.2 mM NaHCO3 and 0.1% glucose. To test the ability of compounds to inhibit CD73 enzymatic activity, 2 μL of 500 μM of compounds dissolved in DMSO (50×) were added to a 96-well polystyrene plate containing 58 μL of assay buffer. Next, 20 μL of CHO-CD73 cells in assay buffer were added to assay plate followed by 20 μL of 125 μM AMP (Adenosine 5′-monophosphate monohydrate) in assay buffer. Final assay conditions consisted of 2500 cells per well in 2% DMSO and 25 μM of AMP substrate. After 50 minutes of incubation (37° C. and 5% CO2) and centrifugation at 225×g for 5 mins, 80 μL of supernatant were transferred to a 96-well Spectra Plate (PerkinElmer, cat #6005640) which was pre-dispensed with 20 μL of PiColorLock Gold colorimetric assay reagents (Thermo, cat #30 300 30). The amount of inorganic phosphate was determined by reading the absorbance at 620 nm on an EnVision Multilabel Plate Reader (PerkinElmer). Enzymatic activity of CD73 was based on the amount of phosphate generated. Percentage of activity was calculated based on DMSO and no cells control wells. IC50 values of compounds were determined by four parameter non-linear regression fitting of percentage of activity in GraphPad Prism software.

Row | SMILES | IC50 [nM]
1 | CC(C)OC(=O)OCOP(=O)(O)CP(=O)(OCOC(=O)OC(C)C)OC[C@H]1O[C@@H](n2ncc3c(NC4CCCC4)nc(Cl)nc32)[C@H](O)[C@@H]1O (stereo partly drawn) | > 1000
2 | CC(C)OC(=O)OCOP(=O)(O)CP(=O)(OCOC(=O)OC(C)C)OC[C@H]1O[C@@H](n2ncc3c(N[C@@H](C)c4ccccc4)nc(Cl)nc32)[C@H](O)[C@@H]1O (stereo partly drawn) | > 1000
3 | C[C@H](Nc1nc(Cl)nc2c1cnn2[C@@H]1O[C@H](COP(=O)(O)CP(=O)(O)O)[C@@H](O)[C@@H]1F)c1ccc(F)cc1 | < 100
4 | C[C@@H](Nc1nc(Cl)nc2c1cnn2[C@@H]1O[C@H](COP(=O)(O)CP(=O)(O)O)[C@@H](O)[C@@H]1F)c1ccc(F)cc1 | < 100
5 | O=P(O)(O)CP(=O)(O)OC[C@H]1O[C@@H](n2cnc3c(NC4CCCC4)cc(Cl)nc32)[C@H](O)[C@@H]1O | < 100
6 | O=P(O)(O)CP(=O)(O)OC[C@H]1O[C@@H](n2cnc3c(NC4CCCC4)cc(Cl)nc32)[C@@H](F)[C@@H]1O | < 100
7 | O=P(O)(O)CP(=O)(O)OC[C@H]1O[C@@H](n2ncc3c(NC4CCCC4)cc(Cl)nc32)[C@H](O)[C@@H]1O | < 100
8 | C[C@H](Nc1cc(Cl)nc2c1cnn2[C@@H]1O[C@H](COP(=O)(O)CP(=O)(O)O)[C@@H](O)[C@H]1O)c1ccccc1 | < 100
9 | C[C@@H](Nc1cc(Cl)nc2c1cnn2[C@@H]1O[C@H](COP(=O)(O)CP(=O)(O)O)[C@@H](O)[C@H]1O)c1ccccc1 | < 100
10 | C[C@H](Nc1cc(Cl)nc2c1cnn2[C@@H]1O[C@H](COP(=O)(O)CP(=O)(O)O)[C@@H](O)[C@H]1O)c1ccc(F)cc1 | < 100
11 | O=P(O)(O)CP(=O)(O)OC[C@H]1O[C@@H](n2ncc3c(NC4CCCC4)cc(Cl)nc32)[C@@H](F)[C@@H]1O | < 100
12 | C[C@H](Nc1cc(Cl)nc2c1cnn2[C@@H]1O[C@H](COP(=O)(O)CP(=O)(O)O)[C@@H](O)[C@@H]1F)c1ccccc1 | < 100
13 | C[C@@H](Nc1cc(Cl)nc2c1cnn2[C@@H]1O[C@H](COP(=O)(O)CP(=O)(O)O)[C@@H](O)[C@@H]1F)c1ccccc1 | < 100
14 | C[C@H](Nc1nc(Cl)nc2c1ccn2[C@@H]1O[C@H](COP(=O)(O)CP(=O)(O)O)[C@@H](O)[C@H]1O)c1ccccc1F | < 100
15 | C[C@H](Nc1nc(Cl)nc2c1ccn2[C@@H]1O[C@H](COP(=O)(O)CP(=O)(O)O)[C@@H](O)[C@H]1O)c1cccc(F)c1 | < 100
16 | C[C@H](Nc1nc(Cl)nc2c1ccn2[C@@H]1O[C@H](COP(=O)(O)CP(=O)(O)O)[C@@H](O)[C@H]1O)c1ccc(F)cc1 | < 100
17 | C[C@@H](Nc1nc(Cl)nc2c1ccn2[C@@H]1O[C@H](COP(=O)(O)CP(=O)(O)O)[C@@H](O)[C@@H]1F)c1ccccc1 | < 100
18 | C[C@H](Nc1nc(Cl)nc2c1ccn2[C@@H]1O[C@H](COP(=O)(O)CP(=O)(O)O)[C@@H](O)[C@@H]1F)c1ccccc1 | < 100
19 | C[C@H](Nc1nc(Cl)nc2c1ccn2[C@@H]1O[C@H](COP(=O)(O)CP(=O)(O)O)[C@@H](O)[C@@H]1F)c1cccc(F)c1 | < 100
20 | C[C@@H](Nc1nc(Cl)nc2c1ccn2[C@@H]1O[C@H](COP(=O)(O)CP(=O)(O)O)[C@@H](O)[C@@H]1F)c1ccc(F)cc1 | < 100
21 | C[C@H](Nc1nc(Cl)nc2c1ccn2[C@@H]1O[C@H](COP(=O)(O)CP(=O)(O)O)[C@@H](O)[C@@H]1F)c1ccc(F)cc1 | < 100
22 | C[C@H](Nc1nc(Cl)nc2c1ccn2[C@@H]1O[C@H](COP(=O)(O)CP(=O)(O)O)[C@@H](O)[C@@H]1F)c1ccccc1F | < 100
23 | C[C@@H](Nc1nc(Cl)nc2c1ccn2[C@@H]1O[C@H](COP(=O)(O)CP(=O)(O)O)[C@@H](O)[C@@H]1F)c1ccccc1F | < 100

Results, then the compound that gave them:

Row | IC50 [nM] | SMILES
24 | < 100 | O=P(O)(O)CP(=O)(O)OC[C@H]1O[C@@H](n2cnc3c(NCc4ccc(Br)cc4)ncnc32)[C@H](O)[C@@H]1O
25 | < 100 | CC(C)(C)c1ccc(CNc2ncnc3c2ncn3[C@@H]2O[C@H](COP(=O)(O)CP(=O)(O)O)[C@@H](O)[C@H]2O)cc1
26 | < 100 | O=P(O)(O)CP(=O)(O)OC[C@H]1O[C@@H](n2cnc3c(NCc4ccc(-c5ccccc5)cc4)ncnc32)[C@H](O)[C@@H]1O
27 | < 100 | O=P(O)(O)CP(=O)(O)OC[C@H]1O[C@@H](n2cnc3c(NCc4ccc(C(F)(F)F)cc4)ncnc32)[C@H](O)[C@@H]1O
28 | < 100 | Cc1ccc(CNc2ncnc3c2ncn3[C@@H]2O[C@H](COP(=O)(O)CP(=O)(O)O)[C@@H](O)[C@H]2O)cc1
29 | < 100 | C[C@@H](Nc1nc(Cl)nc2c1cnn2[C@@H]1O[C@H](COP(=O)(O)CP(=O)(O)O)[C@@H](O)[C@H]1O)c1ccccc1
30 | < 100 | O=P(O)(O)CP(=O)(O)OC[C@H]1O[C@@H](n2ncc3c(NCc4ccc(Cl)cc4)nc(Cl)nc32)[C@H](O)[C@@H]1O
31 | < 100 | C[C@H](Nc1nc(Cl)nc2c1cnn2[C@@H]1O[C@H](COP(=O)(O)CP(=O)(O)O)[C@@H](O)[C@H]1O)c1ccccc1F
32 | < 100 | C[C@@H](Nc1nc(Cl)nc2c1cnn2[C@@H]1O[C@H](COP(=O)(O)CP(=O)(O)O)[C@@H](O)[C@H]1O)c1ccccc1F
33 | < 100 | C[C@H](Nc1nc(Cl)nc2c1cnn2[C@@H]1O[C@H](COP(=O)(O)CP(=O)(O)O)[C@@H](O)[C@H]1O)c1cccc(F)c1
34 | < 100 | C[C@@H](Nc1nc(Cl)nc2c1cnn2[C@@H]1O[C@H](COP(=O)(O)CP(=O)(O)O)[C@@H](O)[C@H]1O)c1cccc(F)c1
35 | < 100 | C[C@H](Nc1nc(Cl)nc2c1cnn2[C@@H]1O[C@H](COP(=O)(O)CP(=O)(O)O)[C@@H](O)[C@H]1O)c1ccc(F)cc1
36 | < 100 | C[C@@H](Nc1nc(Cl)nc2c1cnn2[C@@H]1O[C@H](COP(=O)(O)CP(=O)(O)O)[C@@H](O)[C@H]1O)c1ccc(F)cc1
37 | < 100 | O=P(O)(O)CP(=O)(O)OC[C@H]1O[C@@H](n2ncc3c(NCc4ccccc4Cl)nc(Cl)nc32)[C@H](O)[C@@H]1O
38 | < 100 | CN(Cc1ccccc1Cl)c1nc(Cl)nc2c1cnn2[C@@H]1O[C@H](COP(=O)(O)CP(=O)(O)O)[C@@H](O)[C@H]1O
39 | < 100 | O=P(O)(O)CP(=O)(O)OC[C@H]1O[C@@H](n2ncc3c(NCCc4ccccc4Cl)nc(Cl)nc32)[C@H](O)[C@@H]1O
40 | < 100 | CN(Cc1ccccc1)c1nc(Cl)nc2c1cnn2[C@@H]1O[C@H](COP(=O)(O)CP(=O)(O)O)[C@@H](O)[C@H]1O
41 | < 100 | CN(c1nc(Cl)nc2c1cnn2[C@@H]1O[C@H](COP(=O)(O)CP(=O)(O)O)[C@@H](O)[C@H]1O)C1CCCC1
42 | < 100 | CNc1nc(Cl)nc2c1cnn2[C@@H]1O[C@H](COP(=O)(O)CP(=O)(O)O)[C@@H](O)[C@H]1O
43 | < 100 | O=P(O)(O)CP(=O)(O)OC[C@H]1O[C@@H](n2ncc3c(N[C@H](c4ccccc4)C(F)(F)F)nc(Cl)nc32)[C@H](O)[C@@H]1O
44 | < 100 | O=P(O)(O)CP(=O)(O)OC[C@H]1O[C@@H](n2ncc3c(N[C@H]4CCOC4)nc(Cl)nc32)[C@H](O)[C@@H]1O
45 | < 100 | O=P(O)(O)CP(=O)(O)OC[C@H]1O[C@@H](n2ncc3c(NCc4ccccc4)nc(Cl)nc32)[C@@H](F)[C@@H]1O
46 | < 100 | C[C@H](Nc1nc(Cl)nc2c1cnn2[C@@H]1O[C@H](COP(=O)(O)CP(=O)(O)O)[C@@H](O)[C@@H]1F)c1ccccc1
47 | < 100 | C[C@@H](Nc1nc(Cl)nc2c1cnn2[C@@H]1O[C@H](COP(=O)(O)CP(=O)(O)O)[C@@H](O)[C@@H]1F)c1ccccc1
48 | < 100 | C[C@H](Nc1nc(Cl)nc2c1cnn2[C@@H]1O[C@H](COP(=O)(O)CP(=O)(O)O)[C@@H](O)[C@@H]1F)c1ccccc1F
49 | < 100 | C[C@@H](Nc1nc(Cl)nc2c1cnn2[C@@H]1O[C@H](COP(=O)(O)CP(=O)(O)O)[C@@H](O)[C@@H]1F)c1ccccc1F
50 | < 100 | C[C@H](Nc1nc(Cl)nc2c1cnn2[C@@H]1O[C@H](COP(=O)(O)CP(=O)(O)O)[C@@H](O)[C@@H]1F)c1cccc(F)c1
51 | < 100 | C[C@@H](Nc1nc(Cl)nc2c1cnn2[C@@H]1O[C@H](COP(=O)(O)CP(=O)(O)O)[C@@H](O)[C@@H]1F)c1cccc(F)c1
